From publication PMC4063695, “Design of Embedded-Hybrid Antimicrobial Peptides with Enhanced Cell Selectivity and Anti-Biofilm Activity” (PLoS ONE, 2014)
No end group written: not given here.

Assays:
E. coli K88 = conditions: MHB, 37°C, 18-24 h, at least three times in duplicate
From the text: (§1) E. coli ATCC25922, P. aeruginosa ATCC27853, S. aureus ATCC29213, S. epidermidis ATCC12228, S. faecalis ATCC29212 and B. subtilis CMCC63501 were obtained from the College of Veterinary Medicine, Northeast Agricultural University (Harbin, China), E. coli K88, E. coli CVCC1515 and P. aeruginosa ATCC15442 were bestowed by Prof. J.H. Wang (Gene Engineering Laboratory, Feed Research Institute, Chinese Academy of Agricultural Sciences Beijing, China) and E. coli UB1005 was kindly provided by Prof. Q.S. Qi (State Key Laboratory of Microbial Technology, Shandong University, China). […] Briefly, 50 µl of approximate 0.5–1 × 10^6 colony forming units (CFU)/ml of cells were diluted in Mueller-Hinton broth and distributed to 96-well plate, 50 µl of twofold peptides were added and the plates was incubated at 37°C for 18–24 h. The MIC values were calculated as the lowest peptide concentration that prevented visible turbidity and negative control of the pure broth without microbes. The tests were performed at least three times in duplicate.

B. subtilis CMCC63501 = conditions: B. subtilis CMCC63501; MHB, 37°C, 18-24 h; at least three times in duplicate
From the text: as §1

S. pullorum C79-13 = conditions: S. pullorum C79-13; MHB, 37°C, 18-24 h; at least three times in duplicate
From the text: as §1

E. coli CVCC1515 = conditions: E. coli CVCC1515; MHB, 37°C, 18-24 h; at least three times in duplicate
From the text: as §1

P. aeruginosa ATCC15442 = conditions: P. aeruginosa ATCC15442; MHB, 37°C, 18-24 h; at least three times in duplicate
From the text: as §1

S.epidermidis ATCC12228 = conditions: S.epidermidis ATCC12228; MHB, 37°C, 18-24 h; at least three times in duplicate
From the text: as §1

S.aureus ATCC29213 = conditions: S.aureus ATCC29213; MHB, 37°C, 18-24 h; at least three times in duplicate
From the text: as §1

S. typhimurium ATCC14028 = conditions: S. typhimurium ATCC14028; MHB, 37°C, 18-24 h; at least three times in duplicate
From the text: as §1

P. aeruginosa variant 2 = conditions: P. aeruginosa variant 2, obtained by step-wise culture with gentamicin; MHB, 37°C, 18-24 h
From the text: as §1

P. aeruginosa ATCC27853 = conditions: P. aeruginosa ATCC27853; MHB, 37°C, 18-24 h; at least three times in duplicate
From the text: as §1

E. coli ATCC25922 [1] = conditions: E. coli ATCC25922; MHB, 37°C, 18-24 h; at least three times in duplicate
From the text: as §1

P. aeruginosa variant 1 = conditions: P. aeruginosa variant 1, obtained by step-wise culture with ciprofloxacin hydrochloride; MHB, 37°C, 18-24 h
From the text: as §1

S.faecalis ATCC29212 = conditions: S.faecalis ATCC29212; MHB, 37°C, 18-24 h; at least three times in duplicate
From the text: as §1

E. coli UB1005 = conditions: E. coli UB1005; MHB, 37°C, 18-24 h; at least three times in duplicate
From the text: as §1

[2] = system: human red blood cells (hRBC); assay: Hemolytic activity; type: cell-based; conditions: minimum concentration that caused 5% hemolysis of hRBC (footnote); 1% hRBC in PBS pH 7.4, 1 h, 37°C, OD 492 nm
Method: The amount of released hemoglobin by the lysis of erythrocytes was measured for hemolytic activity of peptides. Human erythrocytes were obtained from a healthy donor with written informed consent. The experimental protocol was reviewed and approved by the ethics committee of the Northeast Agricultural University Hospital. The measurement was based on a previously described method. The fresh hRBCs were washed three times by centrifugation (1000 g, 5 min, 4°C) in PBS (pH 7.4), and then resuspended in PBS to obtain the erythrocyte with a dilution of approximately 1% (v/v). Then, 50 µL of hRBCs solution was incubated with 50 µL of different concentrations of the peptides dissolved in PBS for 1 h at 37°C, before centrifugation (1000 g, 5 min, 4°C) again. The absorbance of the supernatants was measured at optical density (OD) 492 nm. […] The control samples for 0% and 100% hemolysis consisted of hRBCs in PBS (Ablank) only and in 0.1% Triton X-100 (Atriton), respectively. The percentage of hemolysis was calculated according to the following equation: [drawing 3]

E. coli ATCC25922 [3] = assay: Kinetics of bacterial killing; type: cell-based, Escherichia coli; conditions: 1× MIC, within 30 min, 37°C, PBS; mean of three repeats
Method: Kinetics of the bacterial killing was measured by using E. coli ATCC25922 in logarithmic phase (10^8 CFU/mL). The above bacteria were diluted to 1/1000 with PBS, and 500 µL solutions was added with 500 µL PBS at different final concentrations (1/4, 1/2 and 1 × MIC). The solutions were incubated for 0.5 min, 1 min, 2.5 min, 5 min, 10 min, 20 min, and 40 min at 37°C. The moderately diluted samples were plated on nutrient agar plate (MHA). The bacterial colonies were counted after incubation for 18 h at 37°C. The results were determined and presented as the mean of three repeats.

RFRRLFRIRVRVLKKI-NH2 [R-FV-I16]
MIC (E. coli K88): 2 µM
MIC (B. subtilis CMCC63501): 1 µM
MIC (S. pullorum C79-13): 1 µM
MIC (E. coli CVCC1515): 2 µM
MIC (P. aeruginosa ATCC15442): 2 µM
MIC (S.epidermidis ATCC12228): 4 µM
MIC (S.aureus ATCC29213): 2 µM
MIC (S. typhimurium ATCC14028): 2 µM
MIC (P. aeruginosa variant 2): 4 µM
MIC (P. aeruginosa ATCC27853): 4 µM
MIC (E. coli ATCC25922 [1]): 1 µM
MIC (P. aeruginosa variant 1): 2 µM
MIC (S.faecalis ATCC29212): 1 µM
MIC (E. coli UB1005): 4 µM
MHC [2]: 128 µM
reduction of colony count (E. coli ATCC25922 [3]): 99%
